Experiments:
Coagulation factor X [1] = target: T1, Coagulation factor X (Homo sapiens, UniProt P00742); test: Inhibition of human F10a by fluorescence assay
Plasma = test: Anticoagulant activity in human plasma assessed as drug level causing 1.5 times prolongation of prothrombin time; type: functional
Albumin = Albumin (Homo sapiens, UniProt P02768); test: Binding affinity to human serum albumin; type: ADME; details: isolated protein
Coagulation factor X [2] = target: T1, Coagulation factor X; test: Inhibition of human F10a by chromogenic assay
[3] = Volume of distribution at steady state in Sprague-Dawley rat; type: ADME, organism-based; details: in vivo, read-out: Vdss
[4] = Plasma clearance in Sprague-Dawley rat; type: ADME, organism-based
[5] = Oral bioavailability in Sprague-Dawley rat; type: ADME, organism-based; details: in vivo
[6] = Half life in Sprague-Dawley rat; type: ADME, organism-based; details: in vivo

Chain of Albumin (P02768 whole entry): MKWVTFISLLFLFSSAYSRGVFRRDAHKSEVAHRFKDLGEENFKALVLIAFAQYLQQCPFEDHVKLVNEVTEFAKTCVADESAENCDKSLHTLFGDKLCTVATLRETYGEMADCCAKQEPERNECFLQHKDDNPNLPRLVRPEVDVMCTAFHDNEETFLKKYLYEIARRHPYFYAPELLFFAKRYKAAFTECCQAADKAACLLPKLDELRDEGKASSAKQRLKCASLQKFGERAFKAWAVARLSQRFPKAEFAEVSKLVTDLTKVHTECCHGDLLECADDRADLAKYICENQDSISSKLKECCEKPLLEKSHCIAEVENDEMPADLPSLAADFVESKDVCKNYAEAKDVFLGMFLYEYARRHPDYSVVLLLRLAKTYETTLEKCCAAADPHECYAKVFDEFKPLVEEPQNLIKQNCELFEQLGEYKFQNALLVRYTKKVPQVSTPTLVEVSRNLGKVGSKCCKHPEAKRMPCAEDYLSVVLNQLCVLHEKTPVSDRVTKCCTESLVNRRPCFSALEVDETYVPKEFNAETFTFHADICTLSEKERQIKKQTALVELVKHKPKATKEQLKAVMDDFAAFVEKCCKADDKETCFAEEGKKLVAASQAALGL
T1 sequence (P00742 41-179 limits assumed): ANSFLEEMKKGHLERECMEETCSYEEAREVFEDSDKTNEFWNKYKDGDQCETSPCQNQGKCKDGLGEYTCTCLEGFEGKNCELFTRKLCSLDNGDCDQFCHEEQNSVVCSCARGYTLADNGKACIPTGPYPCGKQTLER
T1 sequence (P00742 235-488 limits assumed): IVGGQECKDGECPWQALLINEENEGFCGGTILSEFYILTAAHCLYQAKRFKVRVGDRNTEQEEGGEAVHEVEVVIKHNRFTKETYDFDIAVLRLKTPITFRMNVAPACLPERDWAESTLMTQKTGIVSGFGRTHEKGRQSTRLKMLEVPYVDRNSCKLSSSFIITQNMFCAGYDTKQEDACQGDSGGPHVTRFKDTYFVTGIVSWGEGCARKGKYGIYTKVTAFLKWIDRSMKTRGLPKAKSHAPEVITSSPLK

Ki (Coagulation factor X [1]) [nM] | Structure (SMILES) | Activity (Plasma) [µM] | also measured
180 | CC(C)Oc1ccccc1-c1ccc(N2CCC(NS(=O)(=O)/C=C/c3ccc(Cl)s3)C2=O)nc1 (stereo not given) | >100 | –
1.1 | CS(=O)(=O)c1ccccc1-c1ccc(N2CCC(NS(=O)(=O)c3cc4ccc(Cl)cc4o3)C2=O)c(F)c1 (stereo not given) | >100 | Activity (Albumin): 99.6%
4.4 | O=C1C(NS(=O)(=O)c2ccc3cc(Cl)ccc3c2)CCN1c1ccc(-n2ccnc2)cc1F (stereo not given) | >100 | –
8.9 | O=C1C(NS(=O)(=O)c2ccc3cc(Cl)ccc3c2)CCN1c1ccc(-c2ccncc2)cc1F (stereo not given) | 92.9 | –
74.6 | O=C1C(NS(=O)(=O)c2ccc3cc(Cl)ccc3c2)CCN1c1ccc(-c2ccoc2)cc1F (stereo not given) | >100 | –
9.1 | CN(c1ccccc1-c1ccc(N2CCC(NS(=O)(=O)/C=C/c3ccc(Cl)s3)C2=O)nc1)S(C)(=O)=O (stereo not given) | >100 | –
11.8 | CN(C)C(=O)c1ccccc1-c1ccc(N2CCC(NS(=O)(=O)/C=C/c3ccc(Cl)s3)C2=O)nc1 (stereo not given) | 78.6 | –
0.1 | CS(=O)(=O)c1ccccc1-c1ccc(N2CCC(NS(=O)(=O)/C=C/c3cc4ccc(Cl)cc4s3)C2=O)c(F)c1 (stereo not given) | 28.7 | –
0.4 | CN(C)S(=O)(=O)c1ccccc1-c1ccc(N2CCC(NS(=O)(=O)/C=C/c3ccc(Cl)s3)C2=O)nc1 (stereo not given) | 65.1 | –
2 | CS(=O)(=O)c1ccccc1-c1ccc(N2CCC(NS(=O)(=O)c3cc4nc(Cl)ccc4s3)C2=O)c(F)c1 (stereo not given) | > 100 | –
6 | O=C1C(NS(=O)(=O)/C=C/c2ccc(Cl)s2)CCN1c1ccc(-c2ccccc2C(F)(F)F)cn1 (stereo not given) | >100 | –
80 | O=C1C(NS(=O)(=O)c2ccc3cc(Cl)ccc3c2)CCN1c1ccc(-c2ccccc2)cn1 (stereo not given) | >100 | –
< 0.4 | CS(=O)(=O)c1ccccc1-c1ccc(N2CCC(NS(=O)(=O)/C=C/c3ccc(Cl)cc3)C2=O)c(F)c1 (stereo not given) | 30 | Vd [3]: 0.5 L/kg; clearance [4]: 0.552 L/h/kg; bioavailability [5]: 41%; half-life [6]: 48 min

Continued, compound first:

Structure (SMILES) | Ki (Coagulation factor X [1]) [nM] | Activity (Plasma) [µM] | also measured
NS(=O)(=O)c1ccccc1-c1ccc(N2CCC(NS(=O)(=O)/C=C/c3ccc(Cl)s3)C2=O)nc1 (stereo not given) | – | – | Activity (Albumin): 98%
O=C1C(NS(=O)(=O)c2ccc3cc(Cl)ccc3c2)CCN1c1ccc(-n2cccn2)cc1F (stereo not given) | 2.7 | >100 | –
Cn1ccnc1-c1ccc(N2CCC(NS(=O)(=O)c3ccc4cc(Cl)ccc4c3)C2=O)c(F)c1 (stereo not given) | 1.1 | 54.5 | –
CC(C)(C)c1ccccc1-c1ccc(N2CCC(NS(=O)(=O)/C=C/c3ccc(Cl)s3)C2=O)nc1 (stereo not given) | – | – | Ki (Coagulation factor X [2]): 2330 nM
O=C1C(NS(=O)(=O)c2ccc3cc(Cl)ccc3c2)CCN1c1ccc(-c2cccnc2)cc1F (stereo not given) | 6.3 | >100 | –
CNS(=O)(=O)c1ccccc1-c1ccc(N2CCC(NS(=O)(=O)/C=C/c3ccc(Cl)s3)C2=O)nc1 (stereo not given) | < 0.3 | 25 | –
N#Cc1ncccc1-c1ccc(N2CCC(NS(=O)(=O)c3ccc4cc(Cl)ccc4c3)C2=O)c(F)c1 (stereo not given) | 0.7 | 64.3 | –
CS(=O)(=O)c1ccccc1-c1ccc(N2CCC(NS(=O)(=O)/C=C/c3ccc(Cl)s3)C2=O)c(F)c1 (stereo not given) | – | – | Activity (Albumin): 97.6%
CS(=O)(=O)c1ccccc1-c1ccc(N2CCC(NS(=O)(=O)/C=C/c3ccc(Cl)s3)C2=O)nc1 (stereo not given) | – | – | Vd [3]: 0.7 L/kg; clearance [4]: 1.2 L/h/kg; bioavailability [5]: 29%; Activity (Albumin): 97.6%; half-life [6]: 36 min
O=C1C(NS(=O)(=O)c2ccc3cc(Cl)ccc3c2)CCN1c1ccc(-c2ccccc2)cc1F (stereo not given) | 215 | >100 | –
CS(=O)(=O)Nc1ccccc1-c1ccc(N2CCC(NS(=O)(=O)/C=C/c3ccc(Cl)s3)C2=O)nc1 (stereo not given) | – | 58.4 | Ki (Coagulation factor X [2]): 14 nM; Activity (Albumin): 98.2%
CS(=O)(=O)c1ccccc1-c1ccc(N2CCC(NS(=O)(=O)c3ccc4cc(Cl)ccc4c3)C2=O)c(F)c1 (stereo not given) | – | – | Vd [3]: 1.1 L/kg; clearance [4]: 1.2 L/h/kg; bioavailability [5]: 10%; Activity (Albumin): 98.8%; half-life [6]: 54 min
Cn1cnc(-c2ccc(N3CCC(NS(=O)(=O)c4ccc5cc(Cl)ccc5c4)C3=O)c(F)c2)c1 (stereo not given) | 15.5 | >100 | –
CS(=O)(=O)c1ccccc1-c1ccc(N2CCC(NS(=O)(=O)c3cc4cc(Cl)ccc4o3)C2=O)c(F)c1 (stereo not given) | 6.2 | >100 | –
N#Cc1ccccc1-c1ccc(N2CCC(NS(=O)(=O)/C=C/c3ccc(Cl)s3)C2=O)nc1 (stereo not given) | 1.8 | 73.7 | –

From ChEMBL document CHEMBL1140797, “Structure and property based design of factor Xa inhibitors: pyrrolidin-2-ones with biaryl P4 motifs” (Bioorg Med Chem Lett, 2008)
